The test addresses T1, IMPα2 (importin α, IMPα) (Mus musculus, UniProt P52293).
T1 construct: gene Kpna2; full-length His6-IMPα2 and IMPαΔIBB (residues 67–529, ARM repeat domain)
Nature of the test: multi-wavelength analytical ultracentrifugation (co-sedimentation at […] nm), SYPRO orange thermal shift and CD; the IC50 is AlphaScreen inhibition of IMPα binding to IMPβ[…]. Background: Alpha assays give light when donor and acceptor beads are brought close together.

As a reminder, the IC50 is the point on the concentration scale where inhibition reaches its midpoint. Turning to `O=C1Nc2ccc(I)cc2/C1=C/c1cc(Br)c(O)c(Br)c1` [GW5074], the IC50 stood at 10.3 ± 0.8 µM.

For the origin of these results see PMC6468590, “Novel Flavivirus Antiviral That Targets the Host Nuclear Transport Importin α/β1 Heterodimer” (Cells, 2019).
